Measurements: patent publication US11357850B2, “Methods for treating breast cancer using INOS-inhibitory compositions” (The Methodist Hospital, priority 2014, dated 2022)
Like-named read-outs stand apart in the source and are kept apart here.

Experiments:
MDA-MB-231 = assay: Cell proliferation assay (WST-1), calcium channel antagonists; format: cell-based, human; details: 0, 1, 5, and 10 μM for 72 hrs
Protocol: (§1) Cell Proliferation Assay In Vitro. Mesenchymal-like, TNBC cell lines, MDA-MB-231 and SUM159, were grown in DMEM supplemented with 10% fetal bovine serum and 1% antibiotic-antimycotic. Stock solutions of various calcium-channel antagonists (amlodipine, nicardipine, nifedipine, felodipine, isradipine, diltiazem, verapamil, lacidipine, nisoldipine, nitrendipine, nivaldipine, azelnidipine, barnidipine, benidipine, efonidipine, lercanidipine, pranidipine, and manidipine) were prepared in DMSO. Effects on cell proliferation were assayed with the WST-1 method. Briefly, 1,000 (SUM159) and 2,000 (MDA-MB-231) cells/well were plated in a 96-well plate and treated with different concentrations (0, 1, 5, and 10 μM) of calcium channel antagonists for 72 hrs. Proliferation rate was determined by adding premixed WST-1 reagent. After incubation at 37° C. for three hrs, absorbance was read at 450 nm (reference wavelength 690 nm). Results were normalized against vehicle (100%). The antagonists were considered active when proliferation was decreased in ≥30%.

SUM159 = assay: as above; format: cell-based, human; details: 0, 1, 5, and 10 μM for 72 hrs
Protocol: as §1

SUM159 xenografts = SUM159 xenografts treated with L-NMMA, docetaxel, combination; format: in vivo, mice
Protocol: (§2) Animal Studies. Female SCID Beige mice (4-5 weeks old) (Harlan Laboratories, Houston, Tex., USA) were housed under standard laboratory conditions (22° C.; 12 hrs/12 hrs light/dark cycle and free access to food and water). Either MDA-MB-231 or SUM159 cells (3×10^6) were injected in the right mammary fat pad. Once the tumors reached 150-200 mm^3, the mice were randomized into different groups as follows (n=10/group): 1) Vehicle (saline, i.p.), 2) L-NMMA (either 80 mg/kg or 200 mg/kg, i.p., daily), 3) Docetaxel (20 mg/kg), 4) Combo (L-NMMA and docetaxel).
(§3) Self-renewal and tumor-initiating capacity was determined by MSFE and limiting-dilution assays, respectively, in single cells isolated from tumor tissue. Briefly, breast tumor tissue was minced, digested in DMEM:F12 medium with 100 U/mL of collagenase type 3 (Worthington, Lakewood, N.J., USA) and 0.8 U/mL of dispase (Gibco, Carlsbad, Calif., USA) at 37° C. for 45 min. MSFE was assayed in isolated single cells as stated above. The limiting dilution assay (LDA) was performed injecting either […] isolated cells from tumor tissue in the mammary fat pad of SCID Beige mice (n=12/group). Flow cytometric analysis of CD44^+/CD24^−/low cell population was assayed using published methods.
To answer this question, daily injections of 80 mg/kg L-NMMA were first given to SUM159 xenograft-bearing mice alone or in combination with docetaxel (20 mg/kg). […] The inventor next analyzed the impact on CSC self-renewal by the MSFE assay.

MDA-MB-231 xenografts = MDA-MB-231 xenografts treated with L-NMMA, docetaxel, combination; format: in vivo, mice
Protocol: as §2, §3
The role of L-NMMA was then investigated, either alone or in combination with docetaxel in a different TNBC mouse model. Docetaxel (20 mg/kg at days 0 and 21) and 200 mg/kg L-NMMA (daily) were given to MDA-MB-231 xenograft-bearing mice for 31 days.

[1] = system: unresectable stage III or IV advanced melanoma; details: cited from earlier work
advanced melanoma = details: 2 mg/kg, 173 patients; cited from earlier work
[2] = system: ipilimumab-refractory metastatic melanoma; details: cited from earlier work
[3] = system: metastatic PD-L1-positive NSCLC; details: cited from earlier work
[4] = system: recurrent or metastatic head and neck squamous cell carcinoma; details: cited from earlier work
[5] = system: advanced, PD-L1-positive TNBC; details: cited from earlier work
MCF10A = assay: Western blot of PERK/eIF2α/ATF4/ATF3 axis with recombinant TGFβ1; format: cell-based; details: 10 ng/mL for 24 hrs
Description: FIG. 3A, FIG. 3B, FIG. 3C, FIG. 3D, FIG. 3E, FIG. 3F, FIG. 3G, FIG. 311, FIG. 3I, and FIG. 3J show iNOS knockdown impairs tumorigenicity and EMT by a dual impact on HIF1α and endoplasmic reticulum (ER) stress/TGFβ/AFT4/ATF3 crosstalk. Proliferation (FIG. 3A), migration (FIG. 3B), and self-renewal capacity (primary and secondary mammospheres) (FIG. 3C) in MDA-MB-231 cells transfected with two different NOS2-directed shRNAs (shRNA1, shRNA2) compared with empty vector (shRNA-EV). […] Selective iNOS inhibition reduced hypoxia (HIF1α), ER stress markers (IRE1α, ATF4) (FIG. 3F), phospho-Smad2/3, Smad2/3 and mature TGFβ protein levels in MDA-MB-231 and SUM159 cells (FIG. 3G). FIG. 3H: Recombinant TGFβ1 (10 ng/mL for 24 hrs) activates the PERK/eIF2α/ATF4/ATF3 axis in MCF10A. […] FIG. 3J: Selective iNOS inhibition is postulated to impair EMT and tumor cell migration by an impact on HIF1α, ER stress (IRE1α/XBP1) and the crosstalk between ATF4, ATF3 and TGFβ. Results were normalized to empty vector. Data are presented as mean±SEM. ****p<0.0001, ***p<0.001, **p<0.01. One-way ANOVA and Bonferroni's post-hoc test;
Western Blot. Cells were cultured at a density of 2.5×10^5 cells/well in 6-well plates with or without iNOS inhibitors for 96 hrs. Cells were resuspended in 1× lysis buffer (Cell Signaling Technology, Inc.) and 1× protease/phosphatase inhibitor cocktail (Thermo Scientific). […]

CC1=C(C(=O)OC(C)C)C(c2cccc([N+](=O)[O-])c2)C(C(=O)OC2CN(C(c3ccccc3)c3ccccc3)C2)=C(N)N1 (centres unmarked) [azelnidipine]
proliferation (MDA-MB-231): dose-dependent decrease in proliferation | proliferation (SUM159): dose-dependent decrease in proliferation

CC(=O)O[C@@]12CO[C@@H]1C[C@H](O)[C@@]1(C)C(=O)[C@H](O)C3=C(C)[C@@H](OC(=O)[C@H](O)[C@@H](NC(=O)OC(C)(C)C)c4ccccc4)C[C@@](O)([C@@H](OC(=O)c4ccccc4)[C@H]21)C3(C)C [docetaxel]
limiting dilution assay, tumors (SUM159 xenografts; 7 weeks with 5×10^4 cells, vehicle 12/12): 12/12 | CD44+/CD24−/low population (flow cytometry) (SUM159 xenografts; mouse, in vivo): slight increase | primary and secondary MSFE of single tumor cells isolated from tumor tissue (SUM159 xenografts; mouse, in vivo): dramatic increase | limiting dilution assay, tumors (SUM159 xenografts; week nine with 2×10^4 cells, vehicle 7/12): 3/12 | limiting dilution assay, tumors (MDA-MB-231 xenografts; 5 weeks with 5×10^4 cells, vehicle 12/12): 8/12 | limiting dilution assay, tumors (MDA-MB-231 xenografts; after six weeks, vehicle 6/12): 8/12 | apoptosis levels (cleaved caspase-3) (MDA-MB-231 xenografts; relative to the combination group): higher apoptosis levels

CCOC(=O)C1=C(C)NC(C)=C(C(=O)OCC)C1c1ccccc1/C=C/C(=O)OC(C)(C)C [lacidipine]
proliferation (MDA-MB-231): dose-dependent decrease in proliferation | proliferation (SUM159): dose-dependent decrease in proliferation

COC(=O)C1=C(C#N)NC(C)=C(C(=O)OC(C)C)C1c1cccc([N+](=O)[O-])c1 (centres unmarked) [nivaldipine]
proliferation (MDA-MB-231): dose-dependent decrease in proliferation | proliferation (SUM159): dose-dependent decrease in proliferation

ipilimumab: comparator in the KEYNOTE-006 melanoma study
estimated 6-month PFS rate ([1]; ipilimumab 3 mg/kg Q3W, four cycles): 26.5% | estimated 12-month survival rate ([1]; ipilimumab 3 mg/kg Q3W): 58.2% | rate of Grade 3-5 treatment-related AEs ([1]; ipilimumab 3 mg/kg Q3W): 19.9% | response rate ([1]; ipilimumab 3 mg/kg Q3W): 11.9%

pembrolizumab: humanized monoclonal antibody of the IgG4/κ isotype blocking the interaction between PD-1 and its ligands
overall response rate (advanced melanoma): 24% | 6-month PFS rate ([2]; 2 mg/kg Q3W): 34% | Grade 3-4 treatment-related fatigue, patients ([2]; 2 mg/kg, 178 patients): 1% | Grade 3-4 generalized edema and myalgia (each), patients ([2]; 2 mg/kg): 1% | Grade 3-4 treatment-related adverse events, patients ([2]; 2 mg/kg): 11% | 6-month PFS rate ([2]; 10 mg/kg Q3W): 38% | Grade 3-4 treatment-related fatigue, patients ([2]; 10 mg/kg, 179 patients): < 1% | Grade 3-4 hypopituitarism, colitis, diarrhea, decreased appetite, hyponatremia, and pneumonitis (each), patients ([2]; 10 mg/kg): 1% | Grade 3-4 treatment-related adverse events, patients ([2]; 10 mg/kg): 14% | estimated 6-month PFS rate ([1]; pembrolizumab 10 mg/kg Q2W): 47.3% | estimated 6-month PFS rate ([1]; pembrolizumab 10 mg/kg Q3W): 46.4% | estimated 12-month survival rate ([1]; pembrolizumab Q2W): 74.1% | rate of Grade 3-5 treatment-related AEs ([1]; pembrolizumab Q2W): 13.3% | response rate ([1]; pembrolizumab Q2W): 33.7% | estimated 12-month survival rate ([1]; pembrolizumab Q3W): 68.4% | rate of Grade 3-5 treatment-related AEs ([1]; pembrolizumab Q3W): 10.1% | response rate ([1]; pembrolizumab Q3W): 32.9% | patients having a DoR of ≥6 months ([3]; 11 patients): 44% | responses ongoing at the time of the analysis, patients ([3]; 21 of 25): 85% | objective response rate (ORR) ([3]; 61 patients with PD-L1 strongly positive tumors, all partial responses): 41% | ORR ([4]; 10 mg/kg Q2W or 200 mg Q3W, n=174): 16% | responding patients with responses of 6 months or longer ([4]; 23 of 28): 82% | SAEs, patients ([4]; in vivo): 45% | dyspnea, patients ([4]; in vivo): 20% | fatigue, patients ([4]; in vivo): 46% | overall response rate ([5]; 10 mg/kg Q2W, 27 evaluable patients): 18.5% | PR, patients ([5]; 10 mg/kg Q2W): 14.8% | complete response (CR), patients ([5]; 10 mg/kg Q2W): 3.7% | progressive disease (PD), patients ([5]; 10 mg/kg Q2W): 48.1% | Grade ≥3 AEs, patients ([5]; five patients): 15.6% | median DoR ([5]; in vivo): not yet reached | median time to response ([5]; range: 7.3-32.4 weeks): 17.9 weeks

recombinant TGFβ1: recombinant human TGF-β1 (CHO cell derived)
PERK/eIF2α/ATF4/ATF3 axis (MCF10A): induced the PERK/eIF2α/ATF4/ATF3 axis
